Square brackets hold non-standard residues; d marks the D form. Peptide text beside a SMILES is read from it. Leu(5,5,5,5',5',5'-F6) = N[C@@H](CC(C(F)(F)F)C(F)(F)F)C(=O)O Some results are limits rather than exact numbers.

Data set [1] has as its system human red blood cells (hRBC). Format: cell-based. As to the method: The selectivity with which the peptides are able to lyse bacterial cells compared to mammalian cells was interrogated by a hemolysis assay against human red blood cells (hRBC). […] Our results are consistent with this trend.
Fresh human red blood cells (hRBCs) were centrifuged at 3,500 rpm and washed with PBS buffer until the supernatant was clear. The hRBCs were then resuspended and diluted to a final concentration of 1% (v/v) in PBS and stored at 4° C. […] An aliquot (50 μL) of supernatant was transferred to a new 96-well plate containing 50 μL H2O in each well. The absorbance at 415 nm was measured using a plate reader. Wells containing melittin at 100-400 μg/mL served as positive controls, and wells containing only buffer and hRBCs served as negative controls. The percentage hemolysis was calculated using the equation:
where complete hemolysis is defined as the average absorbance of all wells containing 100-400 μg/[…] melittin.

A further data set deals with T1, trypsin.
T1 construct: trypsin (from bovine pancreas, EC 3.4.21.4); from tissue; host or cells: bovine pancreas
As to the kind of experiment: in vitro. Format: in vitro ADME, bovine. As to conditions: bovine, isolated enzyme trypsin, pH 7.4. The protocol: The proteolytic stability of peptides towards trypsin (from bovine pancreas, EC 3.4.21.4) was determined by an analytical RP-HPLC assay. […] The enzyme concentration (in 1 mM HCl) was determined by absorbance at 280 nm. […] The amount of enzyme was optimized so that kinetics of proteolytic reactions could be assayed by RP-HPLC (detection at 230 nm). The peptides were incubated with trypsin at 37° C. over a period of 3 h. Aliquots (10 μL) were taken at different reaction times, diluted with 0.2% TFA (440 μL) and stored at −80° C. […] The remaining full-length peptide concentration was normalized with respect to the initial concentration.
where A is the normalized concentration of peptides; k is the pseudo first order rate constant; t is the reaction time in mins; and [A]0 is the initial concentration of peptides. Each fragment cleaved from the full-length peptides was identified by ESI-MS so that cleavage patterns could be established and compared.

Usually share remaining stands for the share of the starting amount still present when the sample was taken. Turning to `CC[C@H](C)[C@H](NC(=O)CN)C(=O)NCC(=O)N[C@@H](CCCCN)C(=O)N[C@@H](Cc1ccccc1)C(=O)N[C@@H](CC(C(F)(F)F)C(F)(F)F)C(=O)N[C@@H](Cc1c[nH]cn1)C(=O)N[C@@H](C)C(=O)N[C@@H](CC(C(F)(F)F)C(F)(F)F)C(=O)N[C@@H](CCCCN)C(=O)N[C@@H](CCCCN)C(=O)N[C@@H](Cc1ccccc1)C(=O)N[C@@H](CC(C(F)(F)F)C(F)(F)F)C(=O)N[C@@H](CCCCN)C(=O)N[C@@H](C)C(=O)N[C@@H](Cc1ccccc1)C(=O)N[C@@H](CC(C(F)(F)F)C(F)(F)F)C(=O)N[C@@H](C)C(=O)N[C@@H](CCC(=O)O)C(=O)N[C@@H](CC(C(F)(F)F)C(F)(F)F)C(=O)N[C@@H](CCSC)C(=O)N[C@@H](CC(N)=O)C(=O)N[C@@H](CO)C(N)=O` [Peptide M2F5] (H-GIGKF[Leu(5,5,5,5',5',5'-F6)]HA[Leu(5,5,5,5',5',5'-F6)]KKF[Leu(5,5,5,5',5',5'-F6)]KAF[Leu(5,5,5,5',5',5'-F6)]AE[Leu(5,5,5,5',5',5'-F6)]MNS-NH2), the “hemolytic activity relative to parent peptide, in words” value in data set [1] is recorded as “significantly more hemolytic”. In the data set with trypsin, the share remaining at 3 h, 0.25 mM was greater than 78%.

These data come from patent publication US20090326196A1 (priority 2006, published 2009).
